The nature of one data set: Kinetic solubility assay. The data set is classed as physicochemical. To be noted: pH 6.5 PBS buffer, HPLC; for solubility: PBS buffer pH 6.5, aqueous buffer, thermodynamic from solid, read-out: Solubility (pH 6.5, μg/mL). As to the method:
Representative Compounds of the Disclosure were tested in a solubility assay with pH 6.5 PBS buffer. PBS buffer was prepared by dissolving 4.86 g of potassium dihydrogen phosphate and 5.09 g of disodium hydrogen phosphate dodecahydrate in 1 L of ultrapure water to have final pH value of 6.5. In the solubility assay, 0.5 mg of test sample was dissolved in 1 mL of methanol and the stock solution was transferred into 2 mL EP tube, and evaporated at 50° C. for 3 h. To the tube was added 1 mL of PBS buffer and the mixture was stirred and shaken for 1-2 h. The solution was allowed to stand overnight and then filtered before HPLC analysis. Another 1.5 mg of the sample was dissolved in 3 mL of methanol to prepare a calibration curve with a series of concentration range of 5-500 μM. The solubility of each sample was determined by the measured peak area in HPLC.

In another data set the test system is NCI-H929 cells. Put plainly: Cell viability assay (NCI-H929 cells), CCK-8. It is filed as cell-based. To be noted: Homo sapiens, NCI-H929, 24 h, WST, 5% FBS. As to the method:
Cell Viability Assay (NCI-H929 Cells)
NCI-H929 cells were obtained from American Type Culture Collection (ATCC). Cells were maintained in the recommended culture medium (RPMI 1640) with 10% FBS and 0.05 mM BME at 37° C. and an atmosphere of 5% CO2.
The effect of Compounds on cell viability was determined using Cell Counting Kit-8 (CCK-8) assay according to the manufacturer's instructions. 95 μL of NCI-H929 cell suspension (20000 cells/well) in culture medium were seeded into 96-well plates and cultured 4 hrs. Each tested compound was serially diluted in DMSO, then 5 μL of the compound or DMSO was diluted in 95 μL medium once more. At last, 5 μL of the compound dilution was added to the corresponding well of the cell plate. After the addition of the tested compound, the cells were incubated at 37° C. in an atmosphere of 5% CO2 for 24 hrs. At the end, 10 μL of CCK-8 solution was added to each well of the plate and incubated for 1-4 hours. The plates were read at 450 nm on the microplate reader (BioTek Synergy 1MF). The readings were normalized to the vehicle cells, and the IC50 was calculated by nonlinear regression analysis using GraphPad Prism 6 software.

Data set [1] has as its target T1, Mcl-1 protein (residues 171-323) (Homo sapiens, UniProt Q07820).
T1 construct: Tag-free Mcl-1 protein (residues 171-323) was used in the FP assay
Put plainly: Inhibition of Mcl-1 by fluorescence polarization (FP) competitive binding assay. The conditions noted are these: FAM-Bid tracer 2 nM, Mcl-1 20 nM, 30 min. The method, then:
Inhibition of Mcl-1 by Fluorescence Polarization (FP) Assay.
The method used a fluorescein labelled peptide (FAM-Bid) which binds to the Mcl-1 protein leading to an increased anisotropy measured in milli-polarization (mP) values using a plate reader.
A 10-points serial dilution of each compound was prepared in DMSO and 5 μL solution was transferred into flat bottomed, 96-well back plate (final DMSO concentration 5%). 120 μL of Buffer (PBS, 0.01% BGG (Sigma Cat. #SRE0011), 0.01% Triton X-100), containing the Fluorescein labelled peptide (Final concentration 2 nM) and Mcl-1 protein (final concentration 20 nM) was then added. […] 10-points dose response curves were plotted with GraphPad software using Sigmoidal Dose-Response Model and the IC50 values were determined by nonlinear regression fitting of the competition curves.

Another data set deals with OPM-2 cells. Put plainly: Cell viability assay (OPM-2 cells), CCK-8. The data set is classed as cell-based. To be noted: Homo sapiens, OPM-2, 24 h, WST, 5% FBS, read-out: OPM2 (WST, 5% FBS). As to the method: Cell Viability Assay (OPM-2 Cells)
OPM-2 cells were obtained from Deutsche Sammlung von Mikroorganismen und Zellkulturen GmbH (DSMZ). […]
The effect of representative Compounds of the Disclosure on cell viability was determined using Cell Counting Kit-8 (CCK-8) assay (Shanghai Life iLab Bio Technology) according to the manufacturer's instructions. Each tested compound was serially diluted in culture medium, 100 μL of the compound dilution was added into 96-well plates. 100 μL of an OPM-2 cell suspension (20000 cells/well) in culture medium were seeded into the corresponding well of the plate and the cells were incubated at 37° C. in an atmosphere of 5% CO2 for 24 hours. In the next day, 20 μL of CCK-8 solution was added to each well of the plate and incubated for 4 hours.
The plates were read at 450 nm on the microplate spectrophotometer (SpectraMax plus 384, Molecular devices). The readings were normalized to the vehicle cells, and the IC50 was calculated by nonlinear regression analysis using GraphPad Prism 6 software.

≈ marks a conversion by molar mass, not a printed value. Where only a bound is given, the exact number is not on record here.

T1 sequence (Q07820 171-323): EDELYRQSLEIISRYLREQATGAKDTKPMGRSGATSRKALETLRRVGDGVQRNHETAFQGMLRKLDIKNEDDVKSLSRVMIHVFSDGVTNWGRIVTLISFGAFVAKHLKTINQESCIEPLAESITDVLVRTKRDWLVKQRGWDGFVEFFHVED

Regarding `Cn1nc2cc1CSc1cc(c3ccc(F)cc3c1)OCCCc1c(C(=O)O)n(C)c3c(c(Cl)ccc13)-c1c(nn3c1COCC3)CSC2` (atropisomer, axis not shown) [compound 39, (S)-(Z)-1^6-chloro-9^6-fluoro-1^1,6^1-dimethyl-26,27-dihydro-1^1H,2^4H,6^1H-10-oxa-4,8-dithia-2(3,2)-pyrazolo[5,1-c][1,4]oxazina-1(7,3)-indola-6(3,5)-pyrazola-9(3,1)-naphthalenacyclotridecaphane-1^2-carboxylic acid], the “Solubility (pH 6.5, μg/mL)” value in “Kinetic solubility assay” is reported as less than 1 μg/mL.
Still for that read-out and setting: in the case of `Cn1nc2cc1CSc1cc(c3ccc(F)cc3c1)OCCCc1c(C(=O)O)n(C)c3c(c(Cl)ccc13)-c1c(nn3c1COCC3)CSC2` (atropisomer, axis not shown) [compound 40, (R)-(Z)-1^6-chloro-9^6-fluoro-1^1,6^1-dimethyl-26,27-dihydro-1^1H,2^4H,6^1H-10-oxa-4,8-dithia-2(3,2)-pyrazolo[5,1-c][1,4]oxazina-1(7,3)-indola-6(3,5)-pyrazola-9(3,1)-naphthalenacyclotridecaphane-1^2-carboxylic acid] it was 74 μg/mL.
On to `Cc1c2c(nn1C)CSCc1cc(n(C)n1)CSc1cc(c3ccccc3c1)OCCCc1c(C(=O)O)n(C)c3c-2c(Cl)ccc13` [AZD5991, (Z)-1^6-chloro-1^1,2^1,2^5,6^1-tetramethyl-1H,2^1H,6^1H-10-oxa-4,8-dithia-1(7,3)-indola-2(4,3),6(3,5)-dipyrazola-9(3,1)-naphthalenacyclotridecaphane-1^2-carboxylic acid, reference compound], for which, in the data set on NCI-H929 cells, the IC50 is 47 nM. Moreover, the solubility in the data set “Kinetic solubility assay” is less than 1 µg/mL.
With `Cc1nc2sc1CSc1cc(c3ccccc3c1)OCCCc1c(C(=O)O)n(C)c3c(c(Cl)ccc13)-c1c(nn3c1CCC3)CSC2` [compound 5, 1^6-chloro-1^1,6^4-dimethyl-2^5,2^6-dihydro-1^1H,2^4H-10-oxa-4,8-dithia-6(2,5)-thiazola-1(7,3)-indola-2(3,2)-pyrrolo[1,2-b]pyrazola-9(3,1)-naphthalenacyclotridecaphane-1^2-carboxylic acid], the results for the IC50 (with NCI-H929 cells; in data set [1]; in the data set on OPM-2 cells) were 960 nM, 11.3 nM and 973 nM, respectively. Further, in the data set “Kinetic solubility assay”, the solubility came to 2 µg/mL (≈ 2.85 µM).
Take `Cn1nc2cc1CSCc1nn3c(c1-c1c(Cl)ccc4c(c(C(=O)O)n(C)c14)CCCOc1cc(cc4ccccc14)SC2)CCC3` [compound 7, (Z)-1^6-chloro-1^1,6^1-dimethyl-2^5,2^6-dihydro-1^1H,2^4H,6^1H-10-oxa-4,8-dithia-1(7,3)-indola-2(3,2)-pyrrolo[1,2-b]pyrazola-6(5,3)-pyrazola-9(3,1)-naphthalenacyclotridecaphane-1^2-carboxylic acid]: the IC50 in the data set with NCI-H929 cells amounted to 1130 nM; in data set [1], 150 nM; with OPM-2 cells it was 774 nM. In addition, in the data set “Kinetic solubility assay”, the solubility stood at 1 µg/mL (≈ 1.46 µM).
As to `Cc1oc2nc1CSc1cc(c3ccccc3c1)OCCCc1c(C(=O)O)n(C)c3c(c(Cl)ccc13)-c1c(nn3c1CCC3)CSC2` [compound 11, (Z)-1^6-chloro-1^1,6^5-dimethyl-2^5,2^6-dihydro-1^1H,2^4H-10-oxa-4,8-dithia-6(2,4)-oxazola-1(7,3)-indola-2(3,2)-pyrrolo[1,2-b]pyrazola-9(3,1)-naphthalenacyclotridecaphane-1^2-carboxylic acid], the IC50 in the data set with NCI-H929 cells is 3540 nM; in data set [1], 10.6 nM; in the data set with OPM-2 cells it was greater than 10000 nM. Further, the solubility in “Kinetic solubility assay” is less than 1 µg/mL.
For the molecule `Cn1nc2cc1CSc1cc(c3cc(F)ccc3c1)OCCCc1c(C(=O)O)n(C)c3c(c(Cl)ccc13)-c1c(nn3c1COCC3)CSC2` [compound 16, (Z)-1^6-chloro-9^7-fluoro-1^1,6^1-dimethyl-2^6,2^7-dihydro-1^1H,2^4H,6^1H-10-oxa-4,8-dithia-2(3,2)-pyrazolo[5,1-c][1,4]oxazina-1(7,3)-indola-6(3,5)-pyrazola-9(3,1)-naphthalenacyclotridecaphane-1^2-carboxylic acid], the IC50 is 360 nM with NCI-H929 cells, 20.7 nM in data set [1] and 2400 nM with OPM-2 cells. The solubility in “Kinetic solubility assay” is less than 1 µg/mL.
With `Cc1c2c(nn1C)CN(S(C)(=O)=O)Cc1cc(n(C)n1)CSc1cc(c3ccc(F)cc3c1)OCCCc1c(C(=O)O)n(C)c3c-2c(Cl)ccc13` [compound 45, (Z)-1^6-chloro-9^6-fluoro-1^1,2^1,2^5,6^1-tetramethyl-4-(methylsulfonyl)-1^1H,2^1H,6^1H-10-oxa-8-thia-4-aza-1(7,3)-indola-2(4,3),6(3,5)-dipyrazola-9(3,1)-naphthalenacyclotridecaphane-1^2-carboxylic acid], in “Kinetic solubility assay”, the “Solubility (pH 6.5, μg/mL)” value is greater than 400 μg/mL.
Turning to `Cc1c2c(nn1C)CN(S(C)(=O)=O)Cc1cc(n(C)n1)CSc1cc(c3ccc(F)cc3c1)OCCCc1c(C(=O)O)n(C)c3c-2c(Cl)ccc13` [compound 47, (S)-(Z)-1^6-chloro-9^6-fluoro-1^1,2^1,2^5,6^1-tetramethyl-4-(methylsulfonyl)-1^1H,2^1H,6^1H-10-oxa-8-thia-4-aza-1(7,3)-indola-2(4,3),6(3,5)-dipyrazola-9(3,1)-naphthalenacyclotridecaphane-1^2-carboxylic acid], in “Kinetic solubility assay”, the “Solubility (pH 6.5, μg/mL)” value is less than 1 μg/mL.
Take `Cc1c2c(nn1C)CN(S(C)(=O)=O)Cc1cc(n(C)n1)CSc1cc(c3ccc(F)cc3c1)OCCCc1c(C(=O)O)n(C)c3c-2c(Cl)ccc13` [compound 48, (R)-(Z)-1^6-chloro-9^6-fluoro-1^1,2^1,2^5,6^1-tetramethyl-4-(methylsulfonyl)-1^1H,2^1H,6^1H-10-oxa-8-thia-4-aza-1(7,3)-indola-2(4,3),6(3,5)-dipyrazola-9(3,1)-naphthalenacyclotridecaphane-1^2-carboxylic acid]: the “Solubility (pH 6.5, μg/mL)” value in “Kinetic solubility assay” is recorded as 3 μg/mL.
As to `Cc1c2c(nn1C)CN(CCO)Cc1cc(n(C)n1)CSc1cc(c3ccccc3c1)OCCCc1c(C(=O)O)n(C)c3c-2c(Cl)ccc13` [compound 50, (Z)-1^6-chloro-4-(2-hydroxyethyl)-1^1,2^1,2^5,6^1-tetramethyl-1^1H,2^1H,6^1H-10-oxa-8-thia-4-aza-1(7,3)-indola-2(4,3), 6(3,5)-dipyrazola-9(3,1)-naphthalenacyclotridecaphane-1^2-carboxylic acid], the IC50 with NCI-H929 cells stood at 66 nM; in data set [1], 20 nM; with OPM-2 cells, 388 nM.
For `Cn1nc2cc1CSc1cc(c3ccc(F)cc3c1)OCCCc1c(C(=O)O)n(C)c3c(c(Cl)ccc13)-c1c(C(F)F)nn(C)c1CN(S(C)(=O)=O)C2` [compound 51, (Z)-1^6-chloro-2^3-(difluoromethyl)-9^6-fluoro-1^1,2^1,6^1-trimethyl-4-(methylsulfonyl)-1^1H,2^1H,6^1H-10-oxa-8-thia-4-aza-1(7,3)-indola-2(4,5),6(3,5)-dipyrazola-9(3,1)-naphthalenacyclotridecaphane-1^2-carboxylic acid] the same measures were 110 nM, 19 nM and 152 nM.

For the origin of these results see patent US12319703B2, “Macrocyclic fused pyrazoles as Mcl-1 inhibitors” (ASCENTAGE PHARMA (SUZHOU) CO., LTD., priority 2019, dated 2025).
